Measurements from patent publication US20240425867A1, “NUCLEIC ACID-BASED ASSEMBLY AND USES THEREOF” (Rheinische Friedrich-Wilhelms-Universität Bonn, priority 2016, published 2024).
pIC50, pKd: −log10 of the molar value. Values joined by “and” are separate entries in the source; they are usually repeats but may differ in a detail not shown here. Identical values can stand only once.

Columns and labels:
[1] = tested on: H1838 cells; details: DxR 8 μM, 37° C., 2 h, non-irradiated
Experimental: For flow cytometry analysis of HyApNc-mediated DxR uptake, the H1838 cells (1×10^5 cells/well) were seeded for 24 h at 37° C. […] The plates were then incubated for 2 h at 37° C. Afterwards, the cells were detached from the plates by trypsinization and transferred to FACS tubes. The cells were then washed twice by centrifugation with 0.5 mL buffer. Afterwards the cell pellets were resuspended in 100 μL 1×PBS buffer and cither irradiated with UV light for 5 minutes (_=365 nm, 350 mW/cm^2) or not irradiated before subjected to FACS analysis. Fluorescence emissions of the internalized DxR were recorded with a 585/42-nm band-pass filter.

[2] = tested on: H1838 cells; assay: Confocal microscopy of photo-triggered DxR release in cells; format: cell-based, human; details: DxR 40 μM, 37° C., 2 h, without UV irradiation
Experimental: In vitro cell imaging of the cell internalization studies were performed using fluorescence microscopy. Prior to each experiment one 70 to 80% confluent flask was trypsinised and suspended with 10 ml of cell medium. 10 μL of the cell solution was pipetted onto a haemocytometer and the cells were counted. Twenty-four hours prior to the internalization experiments approximately 10,000 NSCLC cells were seeded in 96-well glass bottom multiwell cell culture plates (MatTek® Corporation). The plates were then incubated for 24 hours at 37° C. in 5% CO2-atmosphere. […]
To verify the HyApNc-mediated selective transport of DxR to target cells and its light-triggered release from motif 4, we monitored the fluorescence signal of DxR within and outside of the cell nuclei of H1838 cells that were treated with either free DxR (as control) or with HyApNc-DxR (see Example 1 for details of DxR loading), while keeping the DxR concentrations in the bound and the unbound form fixed at 40 μM (5 μM HyApNc carrying 8 equivalents of DxR). […] When control experiments were performed with a construct lacking DMAB (HyApNcw/oAz-DxR), near-identical DxR fluorescence signals are predominantly observed in the cytosol of the cells with and without UV exposure (FIG. 24A, IV-V).

[3] = tested on: NCI-H1838 lung cancer cells; assay: Cell viability (MTT) assay, dose dependent; format: cell-based; details: Homo sapiens, free DxR alone (control), MTT after 24 h
Experimental: To assess the cytotoxicity of free DxR and HyApNc-DxR in NCI-H1838 lung cancer cells, the H1838 cells (2×10^4 cells/well) were seeded in a 96 well plate and grown for 24 h. The cells were then washed with 1×PBS (200 μL) and subsequently treated with i) free DxR (as control), ii) HyApNc-DxR or iii) HyApNc.mut-DxR in a dose dependent way with a final DxR concentration ranging from 0.125μM to 50 μM per well. After 2 h of post-treatment, the cells were washed; the RPMI medium was replaced with a fresh RPMI medium, and subsequently either irradiated with UV light for 5 minutes (_=365 nm; 350 mW/cm^2), or not irradiated. Afterwards the cells were incubated for another 24 h at 37° C.
Then for both experiments, 15 μL of a 3-(4,5-dimethylthiazol-2-yl)-2,5-diphenyltetrazolium bromide (MTT) stock solution (5 mg/mL) was added to each well and the cells were incubated at 37° C. for 6 hours. After 6 h post-tretment with MTT solutions, 100 μL of the SDS-HCL solution was added to each well and mixed thoroughly with a pipette and incubated at 37° C. for an additional 12 hours. Finally the absorbance was measured at λ=570 nm by using a Tecan Infinite® M1000 PRO microplate reader.

[4] = Serum stability in PBS-buffered fetal calf serum (PAGE of 32P-labeled aptamer); format: in vitro ADME; details: 10% PBS-buffered FCS, 37° C., 0 to 72 h
Experimental: (§1) Serum stabilities of trCLN3, its two point mutant non-binding variant trCLN3.mut and their corresponding lipid-functionalized derivatives trCLN3-L4 and trCLN3.mut-L4 were investigated in fetal calf serum (FCS) and human blood serum. For this purpose, the aptamer motifs were labeled at their 5′-end with ^32P to form radiolabeled oligonucleotides. The degradation tests of all the aptamer motifs were performed for 60-72 h at 37°° C. 6 pmol (12 μl of 0.5 μM) of the radio-labeled aptamer (5′-end-labeled with γ-^32P) was incubated in a volume of 300 μl freshly thawed PBS-buffered FCS or human blood serum (270 μl serum+30 μl 10×PBS). For each measurement, 10 μl of the samples were removed, mixed with 90 μl of gel loading buffer (80% formamide+5 mM EDTA+0.01% SDS) and subsequently stored at −20° C. Aliquots of samples were taken after indicated time intervals of 0, 0.3, 1.5, 3, 6, 24, 48, 60 and 72h respectively. The serum stability of the aptamer in FCS or in HBS at different time intervals were analyzed on a denaturing PAGE by loading 10 μl of each sample onto a 10% TAE-Urea gel and running the gels for 90 minutes at 350 V. Gels were wrapped in clingfilm and exposed to a phosphorimager screen in a closed cassette over a period of 12 h and finally the residual intact aptamer bands were analyzed by scanning the screen in a phosphorimage-scanner (FujiFilm FLA 3000). Intensities of the residual intact aptamer bands were calculated applying AIDA image analyzer software program. Serums half-lives of the selected aptamers were determined by using a half-life curve-fitting data analysis program (GraphPad Prism).

[5] = Serum stability in PBS-buffered human blood serum (PAGE of 32P-labeled aptamer); format: in vitro ADME; details: 10% PBS-buffered HBS, 37° C., 0 to 72 h
Experimental: as §1

[6] = molecular target: T1, cMet (Homo sapiens, UniProt P08581); assay: Filter retention assay with 32P-labeled aptamer; format: binding; details: filter retention assays
T1 construct: cMet-Fc, which represents the ectodomain of cMet fused to the Fc domain of human IgG1 was purchased from R&D Systems; purchased R&D Systems
T1 sequence (P08581 25-932 limits assumed): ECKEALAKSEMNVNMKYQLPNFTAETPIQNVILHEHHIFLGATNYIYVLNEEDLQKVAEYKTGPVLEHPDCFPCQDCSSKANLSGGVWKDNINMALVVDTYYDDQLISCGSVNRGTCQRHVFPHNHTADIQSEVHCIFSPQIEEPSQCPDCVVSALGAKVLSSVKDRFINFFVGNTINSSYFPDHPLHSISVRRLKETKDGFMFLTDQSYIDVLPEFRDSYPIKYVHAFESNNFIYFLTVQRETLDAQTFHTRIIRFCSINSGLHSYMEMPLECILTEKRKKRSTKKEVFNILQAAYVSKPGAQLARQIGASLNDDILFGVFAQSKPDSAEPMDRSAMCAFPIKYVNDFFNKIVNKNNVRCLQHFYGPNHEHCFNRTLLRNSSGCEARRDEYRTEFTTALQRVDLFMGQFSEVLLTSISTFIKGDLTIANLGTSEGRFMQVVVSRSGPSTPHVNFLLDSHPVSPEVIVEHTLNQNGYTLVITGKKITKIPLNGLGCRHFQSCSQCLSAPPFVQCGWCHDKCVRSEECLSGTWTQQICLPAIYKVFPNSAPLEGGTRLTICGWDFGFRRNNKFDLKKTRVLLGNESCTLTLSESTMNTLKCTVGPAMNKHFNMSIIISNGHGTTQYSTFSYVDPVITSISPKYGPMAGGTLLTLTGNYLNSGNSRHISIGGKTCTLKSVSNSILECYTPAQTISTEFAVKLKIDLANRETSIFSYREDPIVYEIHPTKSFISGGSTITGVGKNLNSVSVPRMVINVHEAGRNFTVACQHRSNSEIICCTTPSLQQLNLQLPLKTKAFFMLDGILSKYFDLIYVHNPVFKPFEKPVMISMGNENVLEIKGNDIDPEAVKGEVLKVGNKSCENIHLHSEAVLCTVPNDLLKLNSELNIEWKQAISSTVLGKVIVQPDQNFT
Excerpt: The anti-cMet aptamer trCLN3, a 40 nucleotide DNA oligonucleotide rich in guanine sequence, is known to form two intramolecular G-quadruplex structure within the G-rich segment of the aptamer. The G-quadruplex structure in trCLN3 is believed to play a role in target recognition and binding to cMet. […] See J. Vinkenborg et al., Angew Chem Int Ed. 2012, […], 9176-9180; which reference is incorporated herein in its entirety. Binding affinity of trCLN3.mut, a control sequence with a guanine double-point mutation corresponding to G7 and G25 was further verified by filter retention assays.

[7] = molecular target: T1, cMet; assay: Competitive filter-binding assay against γ-32P-labeled trCLN3; details: competition with γ-32P-trCLN3, cMet ~50 nM, competitor 1 μM-25 pM, 37° C.
Experimental: To test the effect of lipid-modification on trCLN3 binding properties, we determined IC50 values for each trCLN3 derivative by a competitive filter retention assay in which varying concentrations of unlabeled 5′-(1-dodecynyl)-functionalized trCLN3 aptamers competed with constant amounts of γ-^32P-labeled trCLN3 in binding to cMet. Two control experiments were also performed using unlabeled trCLN3 and its two point mutant variant trCLN3.mut as competitors.
First, the trCLN3 motif was 5′-end-labeled with γ-^32P ATP using T4 polynucleotide kinase. An aliquot of 20 μL solution containing 50 pmol trCLN3. 6.7 pmol γ-^32P ATP and 20 U T4 polynucleotide kinase in 1× polynucleotide kinase buffer (New England Biolabs) was incubated at 37° C. for 45 min. followed by removal of unreacted γ-^32P ATP using an Illustra G-25 microspin column (GE Healthcare. München, Germany). The purity of the radiolabeled aptamer was confirmed using a 10% PAGE-gel.
0.25 mg/ml BSA. 2 mM MgCl2 in 1×PBS, pH 7.4. […] Residual radioactivity due to cMet bound labeled aptamers was quantified using Fujifilm Fla-3000 PhosphorImager and AIDA software. The curves were fitted with GraphPadPrism 3.02 plotting non-linear regression curve and the IC50 values have been calculated assuming a competition for single binding site.

[8] = molecular target: T1, cMet; details: binding to HGFR (cMet); read-out: dissociation constant (Kd); cited from earlier work

Compound: COc1cccc2c1C(=O)c1c(O)c3c(c(O)c1C2=O)C[C@@](O)(C(=O)CO)C[C@@H]3O[C@H]1C[C@H](N)[C@H](O)[C@H](C)O1 [free DxR, (7S,9S)-7-[(2R,4S,5S,6S)-4-amino-5-hydroxy-6-methyloxan-2-yl]oxy-6,9,11-trihydroxy-9-(2-hydroxyacetyl)-4-methoxy-8,10-dihydro-7H-tetracene-5,12-dione]
- increase in mean cellular fluorescence intensity vs equivalent dose of HyApNc-DxR or HyApNcw/oAz-DxR [1]: 5 fold
- DxR fluorescence in cell nuclei (confocal) [2]: Strong DxR fluorescence
- IC50 [3]: 8 µM and 4.7 µg/mL

Compound: trCLN3.mut: non-binding control sequence of trCLN3 with guanine double-point mutation at G7 and G25 (DNA TGGATGATAGCTCGGTCGGGGTGGATGGGTTGGCAAGTCT; DNA, backbone and methylation of C not given here)
- serum half-life (t1/2) [4]: 2.8 h
- serum half-life (t1/2) [5]: 1.9 h
- binding to cMet [6]: almost no binding

Compound: trCLN3: 40-nucleotide anti-cMet DNA aptamer, 5′-TGGATGGTAGCTCGGTCGGGGTGGGTGGGTTGGCAAGTCT-3′ (DNA, backbone and methylation of C not given here)
- serum half-life (t1/2) [4]: 8.7 h
- serum half-life (t1/2) [5]: 4.9 h
- pIC50 [7]: 7.25
- pKd [8]: 7.42
